Measured values from patent publication US20260137678A1, “METHODS FOR TREATING OR PREVENTING NEUROENDOCRINE TUMOR FORMATION USING XPO1 INHIBITORS” (priority 2022, published 2026).

What was measured:
[1] = system: control and TP53/RB1-inactivated 22PC (PRAD) cells; assay: Monotherapy cytotoxicity assay (CellTiter-Glo viability); assay type: cell-based; settings: 5 nM selinexor; TP53/RB1 inactivation relative to wild-type controls or single gene loss-of-function counterparts
Description: (§1) FIGS. 2A-2E. Loss of TP53/RB1 function induces exportin 1 expression and sensitivity to selinexor. FIG. 2A: XPO1 mRNA expression in LUAD clinical specimens, categorized by their TP53/RB1 status. Data obtained from LUAD TCGA (PanCancer, n=237 wild type (wt), 33 mutated), LUAD OncoSG (OncoSG, Nat Genetics 2020, n=109 wt, 6 mutated) and PRAD TCGA (PanCancer, n=367 wt, 6 mutated)^14,15. FIG. 2B: Western blot showing exportin 1 protein abundance in isogenic H1563 (LUAD) and 22PC (PRAD) cell lines with or without induced loss of function of TP53 and/or RB1 and western blot quantification (n=2) (see methods). FIG. 2C: Barplot showing a representative biological replicate of an experiment assessing viability of control and TP53/RB1-loss (DKO) H1563, 22PC and LnCap (PRAD) cells treated with 5 nM selinexor. […] For FIGS. 2B-2C, p-values were calculated using the Student's t-test (unpaired, heterogeneous variances, two-tailed). p-value legend: *<0.05, **<0.01, ***<0.001. […]
(§2) Cytotoxic assays were performed as described in^22 with a total of 1,500 cells/well seeded in 96-well plates and treated with the drugs/doses described for 96 hours. Viability was assessed with the CellTiter-Glo 2.0 Assay (Promega, G9242) as indicated by manufacturer, and normalized to the untreated control wells.

[2] = system: control and TP53/RB1-inactivated H1563 (LUAD) cells; assay: as above; assay type: cell-based; settings: 5 nM selinexor; TP53/RB1 inactivation relative to wild-type controls or single gene loss-of-function counterparts
Description: as §1, §2

For `O=C(/C=C\n1cnc(-c2cc(C(F)(F)F)cc(C(F)(F)F)c2)n1)NNc1cnccn1` [selinexor], the “selinexor sensitivity (viability)” value [1] was “increased selinexor sensitivity” and the “selinexor sensitivity (viability)” value [2] was “increased selinexor sensitivity”.
